The values that follow come from patent US12419947B2, “Inorganic polyatomic oxyanions for protecting against antigenic damage during pathogen inactivation for vaccine production” (priority 2016, dated 2025).

Data set [1] concerns dengue serotype 4 (DENV4). Kind of data set: DENV-specific sandwich ELISA (MAbs 15A5 and 6H6) on treated DENV4. The format is binding, dengue virus. As to conditions: for antigenicity (ELISA at 20 hrs post-inactivation): H2O2=0.01%, compound 10 μM; for ELISA signal / antigenicity with added salt during H2O2/CuCl2 inactivation: 0.01% H2O2, 1 μM CuCl2, 20 hours, vs standard conditions; for ELISA signal with added oxyanion during formaldehyde inactivation: 0.01% formaldehyde, 20 days at 37° C.; for ELISA signal with added oxyanion during BPL inactivation: 0.1% BPL.

The test system of another data set is dengue virus 3 (DENV3). Put plainly: DENV-specific sandwich ELISA on treated DENV3. The format is binding. As to conditions: H2O2 0.01%.
The test system of a further data set is DENV2. Put plainly: DENV2 inactivation kinetics (PFU assay). The format is cell-based, dengue virus. As to conditions: 3% H2O2, or 0.01% H2O2 and 1 μM CuCl2, room temperature.
In data set [2] the test system is chikungunya virus (CHIKV). Put plainly: CHIKV-specific sandwich ELISA (retained antigenicity). In kind it is binding.
Data set [3] has as its system Campylobacter coli (C. coli). Kind of data set: Campylobacter morphology after inactivation (Gram safranin stain). Conditions: 3% H2O2 5 hours, or 0.01% H2O2 and 2 uM CuCl2.
Data set [4] deals with dengue serotype 4 (DENV4). Kind of data set: DENV4 live virus plaque assay on Vero cells. In kind it is cell-based, dengue virus. Conditions: for rate of inactivation (viable virus at 1 hr post-inactivation): H2O2=0.01%, compound 10 μM; for virus inactivation with added salt during H2O2/CuCl2 inactivation: 0.01% H2O2, 1 μM CuCl2, 20 hours.
The subject of data set [5] is chikungunya virus (CHIKV). The format is cell-based.
Another data set concerns smallpox. As to conditions: in vivo; cited from earlier work.
The subject of a further data set is vaccinia. As to conditions: cited from earlier work.
The subject of the next data set is Shigella dysenteriae. Put plainly: Shigella dysenteriae inactivation (CFU/mL). The format is cell-based. Conditions: H2O2=0.10%, CuCl2=10 μM, MZ=100 μM, 150 mM NaPO4.
A further data set deals with vaccinia virus (VV). The format is cell-based. As to conditions: H2O2=0.002%, CuCl2=1 μM, MZ=10 μM, PBS pH=7.5.
Data set [6] concerns Campylobacter coli (C. coli). Kind of data set: C. coli inactivation (viable bacteria over time). The format is cell-based. As to conditions: H2O2=0.01%, MZ=20 μM, 150 mM NaPO4.
The subject of a further data set is Listeria monocytogenes. Put plainly: Listeria monocytogenes inactivation (CFU/mL). The format is cell-based. As to conditions: H2O2=0.10%, MZ=100 μM, 150 mM NaPO4.
The mark [7] stands for this setting: BEI, Na2HPO4 150 mM, 20 hours at 37° C.
[8] abbreviates: 0.01% formaldehyde with high oxyanion, 20 days at 37° C.
The mark [9] stands for this setting: 0.1% BPL with high oxyanion, 20 hours.
The mark [10] stands for this setting: 20 hours, room temperature, 150 mM NaPO4.

As to `O=C1CCO1` [BPL, β-propiolactone, reference compound], the ELISA signal entry in data set [1] (standard BPL conditions: 0.1% BPL, 20 hours, room temperature) is reported as “loss of ELISA signal”.
For `[Cl][Fe]([Cl])[Cl]` [FeCl3], the “antigenicity with increasing FeCl3 concentrations” value in the data set on dengue virus 3 (DENV3) is given as “enhanced antigenicity”.
Consider `OO` [H2O2, hydrogen peroxide], for which, in the data set on DENV2, the “kinetics of virus inactivation versus total viral protein concentration” value was “protein concentration-independent”. The “antigenicity (in vitro potency testing using envelope-specific MAbs)” value in data set [2] (3% H2O2 under standard conditions) is “nearly complete loss of antigenicity”. Moreover, the “neutralizing epitopes (antigenicity)” value in the data set on yellow fever virus (YFV) is on record as “severe damage to neutralizing epitopes”. Further, in [3], the bacterial morphology result is “substantially damaged with clear changes in morphology”.
`CCCN1C(=O)C(=NNC(N)=S)c2ccccc21` [N-propylisatin β-thiosemicarbazone]: the “antigenicity (ELISA at 20 hrs post-inactivation)” value in data set [1] (CuCl2=1 μM, 150 mM NaPO4) is reported as “superior antigenicity”. Besides, the “rate of inactivation (viable virus at 1 hr post-inactivation)” value in [4] (CuCl2=1 μM, 150 mM NaPO4) is “enhanced rates of inactivation”.
In the case of `O=P(O)(O)O` [Na2HPO4, sodium phosphate], in data set [2] (0.01% H2O2, 5 μM CuCl2, 20 hours, 150 mM Na2HPO4 with or without 3 mM Na3P3O9), the “ELISA signal with added oxyanion during H2O2/CuCl2 inactivation” value is “increased ELISA signals”. Besides, the “ELISA signal / antigenicity with added salt during H2O2/CuCl2 inactivation” value in data set [1] (room temperature) is “increased ELISA signal”. For the same molecule, in [1], the “ELISA signal with added oxyanion during formaldehyde inactivation” value is recorded as “increased ELISA signals”. For the same molecule, the “ELISA signal with added oxyanion during BPL inactivation” value in [1] (20 hours, room temperature) was “increased ELISA signals”. Also, in data set [1] (setting [7]), the “ELISA signal with added oxyanion during BEI inactivation” value is listed as “increased ELISA signals”. In addition, in data set [4], the “virus inactivation with added salt during H2O2/CuCl2 inactivation” value is “complete virus inactivation”. Further, the virus inactivation result in data set [4] (setting [8]), in data set [4] (setting [9]) and in data set [4] (setting [7]) was “completely inactivated” each time. In addition, the “kinetics of virus inactivation in presence vs absence of high Na2HPO4” value in data set [4] (150 mM vs 10 mM, 0.01% H2O2, 1 μM CuCl2) is “similar”. Also, the “residual live virus (co-culture, estimated LOD of 100 PFU/mL)” value in data set [5] is given as “completely inactivated”.
`NC(=S)NN=C1C(=O)Nc2ccccc21` [isatin β-thiosemicarbazone]: in data set [1] (CuCl2=1 μM, 150 mM NaPO4), the “antigenicity (ELISA at 20 hrs post-inactivation)” value is “superior antigenicity”. In addition, in data set [4] (CuCl2=1 μM, 150 mM NaPO4), the “rate of inactivation (viable virus at 1 hr post-inactivation)” value is on record as “enhanced rates of inactivation”.
On the same counts, the results for `O=C1Nc2ccccc2C1=O` [isatin] are “protection of protein antigens from oxidative damage” and “do not appear to increase the rate of inactivation”.
With `[Cl-].[Cl-].[Mg+2]` [magnesium chloride, reference compound], in data set [1] (room temperature), the “ELISA signal / antigenicity with added salt during H2O2/CuCl2 inactivation” value was “no protective effect on antigenicity”.
`O=S(=O)([O-])[O-].[Mg+2]` [magnesium sulfate]: the “ELISA signal / antigenicity with added salt during H2O2/CuCl2 inactivation” value in data set [1] (room temperature) is “improved antigenicity”. In data set [4], the “virus inactivation with added salt during H2O2/CuCl2 inactivation” value is “complete virus inactivation”.
With `CN1C(=O)/C(=N\NC(N)=S)c2ccccc21` [methisazone, N-methyl-isatin β-thiosemicarbazone], the “antigenicity on addition of methisazone to dual oxidation” value in data set [2] (setting [10]) and in data set [1] (setting [10]) was “maintained or significantly improved antigenicity” in each case. The “retained antigenicity at 20 hrs with increasing methisazone relative to the transition metal” value in data set [2] (H2O2 0.02%, CuCl2 1 μM, 150 mM NaPO4) was “improvements in both retained antigenicity”. Moreover, the “deaths among close contacts receiving methisazone” value in the data set with smallpox is reported as “no deaths”. Further, the serious adverse events entry with vaccinia (mean initial dose 152 mg/kg, total average 809 mg/kg over 3.75 days) is “lack of serious adverse events”. Moreover, the “complications of vaccinia vaccination” value with vaccinia (used prophylactically prior to vaccinia vaccination) is reported as “reduce complications”. In addition, the “antigenicity, methisazone together with polyatomic oxyanions” value in data set [1] (H2O2=0.002%, CuCl2=1 μM, 150 mM Na2HPO4, methisazone 10 μM, 20 hours) was “higher antigenicity than could be achieved by either approach in isolation”. The “inactivation rate on addition of methisazone to H2O2/CuCl2” value (with Shigella dysenteriae; in data set [6]; in the data set with Listeria monocytogenes) was “substantially enhanced inactivation rates” each time. Also, the “rate of dual-oxidation-based inactivation on addition of methisazone” value in data set [4] (H2O2=0.002%, CuCl2=1 μM, MZ=10 μM, 150 mM NaPO4) is reported as “substantially increase the rate”; in the data set on vaccinia virus (VV), “substantially increase the rate”; in [5], “substantially increase the rate”. Further, the “virus inactivation by methisazone alone” value in [4] (MZ=10 μM) and in [5] was “minimal impact” throughout. Further, the “increase of the rate of inactivation on addition of methisazone” value is listed as 10- to 20 fold in data set [4] (dual oxidation, 150 mM NaPO4, stated for CHIKV and DENV4 together); 10- to 20 fold in [5]. Also, the “virus inactivation (plaque assay at 1 hr) with increasing methisazone relative to the transition metal” value in data set [5] is “increased virus inactivation rates”.
As for `NNC(N)=O` [semicarbazide], the “antigenicity (ELISA at 20 hrs post-inactivation)” value in [1] (CuCl2=1 μM, 150 mM NaPO4) is listed as “protection of protein antigens from oxidative damage”. For the same molecule, the “rate of inactivation (viable virus at 1 hr post-inactivation)” value in data set [4] (CuCl2=1 μM, 150 mM NaPO4) is on record as “do not appear to increase the rate of inactivation”.
As to `[Cl-].[Na+]` [sodium chloride, reference compound], the “ELISA signal / antigenicity with added salt during H2O2/CuCl2 inactivation” value in data set [1] (room temperature) is given as “no protective effect on antigenicity”.
For the molecule `O=S(=O)([O-])[O-].[Na+].[Na+]` [sodium sulfate], the “ELISA signal / antigenicity with added salt during H2O2/CuCl2 inactivation” value in data set [1] (room temperature) was “improved antigenicity”. Besides, the “ELISA signal with added oxyanion during formaldehyde inactivation” value in data set [1] was “increased ELISA signals”. For the same molecule, the “ELISA signal with added oxyanion during BPL inactivation” value in data set [1] (20 hours, room temperature) is “increased ELISA signals”. Moreover, the “virus inactivation with added salt during H2O2/CuCl2 inactivation” value in data set [4] is on record as “complete virus inactivation”. Moreover, the virus inactivation entry in data set [4] (setting [8]) and in [4] (setting [9]) was “completely inactivated” in each case.
With `O=P1([O-])OP(=O)([O-])OP(=O)([O-])O1.[Na+].[Na+].[Na+]` [sodium trimetaphosphate], the “ELISA signal / antigenicity with added salt during H2O2/CuCl2 inactivation” value in [1] (room temperature) is on record as “increased ELISA signals”. Further, in data set [4], the “virus inactivation with added salt during H2O2/CuCl2 inactivation” value is reported as “completely inactivated”.
On the same counts, the results for `O=P([O-])([O-])OP(=O)([O-])OP(=O)([O-])[O-].[Na+].[Na+].[Na+].[Na+].[Na+]` [sodium triphosphate] are “increased ELISA signals” and “completely inactivated”.
In the case of `NNC(N)=S` [thiosemicarbazide], in [1] (CuCl2=1 μM, 150 mM NaPO4), the “antigenicity (ELISA at 20 hrs post-inactivation)” value is “superior antigenicity”. Besides, in data set [4] (CuCl2=1 μM, 150 mM NaPO4), the “rate of inactivation (viable virus at 1 hr post-inactivation)” value is reported as “enhancement of inactivation”.
